Test results published in patent US20110230423A1, “THERAPY AND MEDICAMENT USING INTEGRIN LIGANDS FOR TREATING CANCER” (priority 2008, published 2011).

Tests used:
[1] = tested on: U251 human glioblastoma cells; experiment: Rat orthotopic glioblastoma model radiotherapy, cilengitide scheduling experiments; type: in vivo, NIH rnu nude rats; settings: individual animals
Procedure: NIH rnu nude rats are anaesthetized, restrained, and injected intracerebrally 1 mm retro orbitally, 3 mm to the right of the bregma and at a depth of 2.5 mm with 5×10E5 U251 human glioblastoma cells suspended in 10 ul of culture medium, using a #2701 Hamilton syringe fitted with a 26 gauge needle, essentially as previously described (Engebraaten et al., 1999). After 14 days, cilengitide (4 mg/kg) is given as an intraperitoneal bolus in PBS, at various time (8 h, 4 h, 2 h, 1 h) prior to a single treatment with single, collimated, dorsal-ventral beam of 6 MV x-rays, so that 95-100% of the central axis dose of 25 Gy hit the tumor volume (Kim et al., 1999). Each of the 7 subsequent days the animals also received an identical i.p. bolus of cilengitide. The animals are maintained under ad libitum food and drink until they become moribund, or are sampled for tissue analysis (in the t-4 and t-8 h groups, where the animals are healthy past 230 days post tumor injection). A Kaplan-Meier survival curve is calculated and plotted (FIG. 1) from the raw data (Table 1). All animals in the RT monotherapy group died by 120 d.

[2] = tested on: newly diagnosed glioblastoma (GBM); experiment: Phase I/IIa trial of cilengitide and temozolomide with concomitant radiotherapy, followed by maintenance, in newly diagnosed glioblastoma; type: in vivo, human
Procedure: Purpose: To evaluate safety, toxicity, and efficacy of the combination of the cyclic RGD pentapeptide Cilengitide (=cyclo-(Arg-Gly-Asp-DPhe-NMe-Val)), an inhibitor of integrins avβ3 and avβ5, in addition to standard temozolomide (TMZ) and radiotherapy (RT).
Patients and methods: Fifty-two pts (PS 0-1: 92%, 2: 8%; median age 57 yrs) after biopsy (n=9/17%) or tumor resection (n=43/83%) were treated with standard TMZ/RT (Stupp et al. NEJM 2005). In addition Cilengitide (500 mg i.v., 2×/week) was started one week before TMZ/RT and given throughout for the duration of chemotherapy or until progression. Primary endpoint was progression free survival rate at 6 months (target: 65%). Patients were followed with MRI every 2 months. Histopathologic diagnosis and MRI imaging were independently reviewed, MGMT promoter methylation status was assessed in 45 (86.5%) pts.

brain metastases = settings: hypofractionation approach with or without the radiosensitizer; cited from earlier work

CC(C)[C@H]1C(=O)N[C@@H](CCCN=C(N)N)C(=O)NCC(=O)N[C@@H](CC(=O)O)C(=O)N[C@H](Cc2ccccc2)C(=O)N1C [Cilengitide, cyclo-(Arg-Gly-Asp-DPhe-NMeVal)]
Days Post Implant ([1]; cilengitide 4 mg/kg i.p. 4 hours pre-irradiation (Rt 25 Gy) plus 7 subsequent daily boluses): > 230 days | Days Post Implant ([1]; cilengitide 4 mg/kg i.p. 8 hours pre-irradiation (Rt 25 Gy) plus 7 subsequent daily boluses): > 230 days | Treatment related non-hematologic grade 3 toxicities (patients) ([2]; Cilengitide 500 mg i.v. 2x/week plus standard TMZ/RT, n=3/52): 5.7% | Tolerability of the combination ([2]; Cilengitide and TMZ/RT): well tolerated | sigmoid perforation (grade 2), patients ([2]; patient with a history of sigmoid diverticulosis): One

COCC(O)Cn1ccnc1[N+](=O)[O-] (stereo not drawn) [misonidazol]
median survival (brain metastases): ≤ 3.9 months
